{"source": "patent US20230048576A1", "about": "“COMPOUNDS FOR THE TREATMENT OF NEUROPATHIC PAIN” (City of Hope, priority 2019, published 2023)", "key": {"[1]": {"test_system": "Taxol-induced neuropathic pain", "assay": "Von Frey test (mechanical allodynia) in Taxol induced model of neuropathic pain", "type": "in vivo, rat", "settings": "Group 2; for mean Von Frey force required for withdrawal: 150 mg/kg IP", "description": "(§1) Neuropathic pain was induced by intraperitoneal administration of Taxol at a dose level of 6 mg/kg on study days 0-6 and 12 mg/kg on study days 7-12. Following injection of Taxol animals experienced pain as was assessed using the von Frey test. The development of neuropathic pain was confirmed by measuring mechanical allodynia (Von Frey test) on study day 13 (for inclusion) and on study day 14 (1 hour and 2 hour post dosing) and 24 hour post first dosing.\nAll data are presented as means±SEM. Each treatment group was compared to the Vehicle group using Two way ANOVA (for VF) followed by Tukey post-test (GraphPad). Vehicle group is compared to naïve group using T-test. A p value<0.05 is considered to represent a significant difference.\nThe response to tactile allodynia was evaluated using the Von Frey apparatus (Touch Test®). The rat was placed in an enclosure and positioned on a metal mesh surface, but allowed to move freely. A set of dull monofilaments provide an increasing force was applied on the animal plantar surface of the paw. The lowest force requires for animal paw withdrawal was recorded. Low force values recorded in this test indicate a painful state."}, "[2]": {"assay": "Mean group body weight in Taxol model", "type": "in vivo, rat", "settings": "150 mg/kg IP, Group 2", "description": "as §1"}, "[3]": {"assay": "Survival of animals during the study", "type": "in vivo, rat", "settings": "150 mg/kg IP, Group 2", "description": "as §1"}, "[4]": {"test_system": "CNS activity (motor coordination and balance)", "assay": "Rotarod test", "type": "in vivo, rats", "settings": "150 mg/kg i.p.; 1 and 6 hr post-dosing", "description": "The objective of this study was to evaluate the potential CNS effects of LR-90 and gabapentin (the latter a widely used drug for neuropathic pain) in rats. LR-90 in 20% HPβCD formulation was delivered at a dose of 50 or 100 mg/kg by oral gavage and gabapentin (150 mg/kg) was delivered by i.p. injection. The rotarod test was employed to measure the CNS activity (motor coordination and balance) and the performance time was recorded at 0 (baseline), 1, 6 and 24 hr post-dose."}}, "note": "“And” between values parts separate entries of the source, which are not always exact repeats. Equal entries are not always repeated. Marks after values point to notes of the source that are not given here.", "data": [{"smiles": "NCC1(CC(=O)O)CCCCC1", "note": "[Gabapentin, reference compound]", "values": [{"measurement": "mean Von Frey force required for withdrawal", "setting": "[1]; Baseline", "value": 57.88, "unit": "g"}, {"measurement": "mean Von Frey force required for withdrawal", "setting": "[1]; Day 13 pre dosing", "value": 9.81, "unit": "g"}, {"measurement": "mean Von Frey force required for withdrawal", "setting": "[1]; Day 14 1 hour post dosing", "value": "45.13**** g"}, {"measurement": "mean Von Frey force required for withdrawal", "setting": "[1]; Day 14 2 hours post dosing", "value": "55.75±2.78 g and 55.75**** g"}, {"measurement": "mean Von Frey force required for withdrawal", "setting": "[1]; Day 15 24 hours post dosing", "value": 19.56, "unit": "g"}, {"measurement": "effect on neuropathic pain compared to the vehicle group (Von Frey test)", "setting": "[1]; 150 mg/kg, 1 hour and 2 hour post dosing on study day 14", "value": "statistically significantly reduced the neuropathic pain"}, {"measurement": "Mean group body weight", "setting": "[2]; Baseline", "value": 223.38, "unit": "g"}, {"measurement": "Mean group body weight", "setting": "[2]; Day 1", "value": 235.25, "unit": "g"}, {"measurement": "Mean group body weight (% from baseline)", "setting": "[2]; Day 1", "value": 105.31, "unit": "%"}, {"measurement": "Mean group body weight", "setting": "[2]; Day 3", "value": 237.50, "unit": "g"}, {"measurement": "Mean group body weight (% from baseline)", "setting": "[2]; Day 3", "value": 106.31, "unit": "%"}, {"measurement": "Mean group body weight", "setting": "[2]; Day 5", "value": 258.13, "unit": "g"}, {"measurement": "Mean group body weight (% from baseline)", "setting": "[2]; Day 5", "value": 115.54, "unit": "%"}, {"measurement": "Mean group body weight", "setting": "[2]; Day 7", "value": 269.25, "unit": "g"}, {"measurement": "Mean group body weight (% from baseline)", "setting": "[2]; Day 7", "value": 120.50, "unit": "%"}, {"measurement": "Mean group body weight", "setting": "[2]; Day 9", "value": 278.75, "unit": "g"}, {"measurement": "Mean group body weight (% from baseline)", "setting": "[2]; Day 9", "value": 124.74, "unit": "%"}, {"measurement": "Mean group body weight", "setting": "[2]; Day 11", "value": 287.63, "unit": "g"}, {"measurement": "Mean group body weight (% from baseline)", "setting": "[2]; Day 11", "value": 128.71, "unit": "%"}, {"measurement": "Mean group body weight", "setting": "[2]; Day 13", "value": 289.50, "unit": "g"}, {"measurement": "Mean group body weight (% from baseline)", "setting": "[2]; Day 13", "value": 129.56, "unit": "%"}, {"measurement": "Mean group body weight", "setting": "[2]; Day 16", "value": 281.00, "unit": "g"}, {"measurement": "Mean group body weight (% from baseline)", "setting": "[2]; Day 16", "value": 125.68, "unit": "%"}, {"measurement": "Mean group body weight", "setting": "[2]; Day 20", "value": 274.38, "unit": "g"}, {"measurement": "Mean group body weight (% from baseline)", "setting": "[2]; Day 20", "value": 122.79, "unit": "%"}, {"measurement": "Mean group body weight", "setting": "[2]; Day 23", "value": 263.38, "unit": "g"}, {"measurement": "Mean group body weight (% from baseline)", "setting": "[2]; Day 23", "value": 117.94, "unit": "%"}, {"measurement": "Mean group body weight", "setting": "[2]; Day 26", "value": 247.75, "unit": "g"}, {"measurement": "Mean group body weight (% from baseline)", "setting": "[2]; Day 26", "value": 113.52, "unit": "%"}, {"measurement": "Survived Animals in %", "setting": "[3]; Study Day 13", "value": 100, "unit": "%"}, {"measurement": "Survived Animals in %", "setting": "[3]; Study Day 14", "value": 100, "unit": "%"}, {"measurement": "Survived Animals in %", "setting": "[3]; Study Day 15", "value": 100, "unit": "%"}, {"measurement": "Survived Animals in %", "setting": "[3]; Study Day 16", "value": 100, "unit": "%"}, {"measurement": "Survived Animals in %", "setting": "[3]; Study Day 17", "value": 100, "unit": "%"}, {"measurement": "Survived Animals in %", "setting": "[3]; Study Day 18", "value": 100, "unit": "%"}, {"measurement": "Survived Animals in %", "setting": "[3]; Study Day 19", "value": 100, "unit": "%"}, {"measurement": "Survived Animals in %", "setting": "[3]; Study Day 20", "value": 100, "unit": "%"}, {"measurement": "Survived Animals in %", "setting": "[3]; Study Day 21", "value": 100, "unit": "%"}, {"measurement": "Survived Animals in %", "setting": "[3]; Study Day 22", "value": 100, "unit": "%"}, {"measurement": "Survived Animals in %", "setting": "[3]; Study Day 23", "value": 100, "unit": "%"}, {"measurement": "Survived Animals in %", "setting": "[3]; Study Day 24", "value": 88, "unit": "%"}, {"measurement": "Survived Animals in %", "setting": "[3]; Study Day 25", "value": 63, "unit": "%"}, {"measurement": "Survived Animals in %", "setting": "[3]; Study Day 28", "value": 50, "unit": "%"}, {"measurement": "rotarod performance time compared with vehicle control group", "setting": "[4]", "value": "significantly decreased"}]}]}
